Test results published in ChEMBL document CHEMBL1142494, “Pharmacophore modeling and molecular docking led to the discovery of inhibitors of human immunodeficiency virus-1 replication targeting the human cellular aspartic acid-glutamic acid-alanine-aspartic acid box polypeptide 3” (J Med Chem, 2008).
Activity calls are given as the source filed them. No cut-off for these calls is given here.

target: ATP-dependent RNA helicase DDX3X (Homo sapiens) (UniProt O00571); assay: Inhibition of ATPase activity in human recombinant DDX3 expressed in Escherichia coli by luciferase-based luminescence assay in presence of ATP; details: not given
Sequence (O00571 2-662 limits assumed): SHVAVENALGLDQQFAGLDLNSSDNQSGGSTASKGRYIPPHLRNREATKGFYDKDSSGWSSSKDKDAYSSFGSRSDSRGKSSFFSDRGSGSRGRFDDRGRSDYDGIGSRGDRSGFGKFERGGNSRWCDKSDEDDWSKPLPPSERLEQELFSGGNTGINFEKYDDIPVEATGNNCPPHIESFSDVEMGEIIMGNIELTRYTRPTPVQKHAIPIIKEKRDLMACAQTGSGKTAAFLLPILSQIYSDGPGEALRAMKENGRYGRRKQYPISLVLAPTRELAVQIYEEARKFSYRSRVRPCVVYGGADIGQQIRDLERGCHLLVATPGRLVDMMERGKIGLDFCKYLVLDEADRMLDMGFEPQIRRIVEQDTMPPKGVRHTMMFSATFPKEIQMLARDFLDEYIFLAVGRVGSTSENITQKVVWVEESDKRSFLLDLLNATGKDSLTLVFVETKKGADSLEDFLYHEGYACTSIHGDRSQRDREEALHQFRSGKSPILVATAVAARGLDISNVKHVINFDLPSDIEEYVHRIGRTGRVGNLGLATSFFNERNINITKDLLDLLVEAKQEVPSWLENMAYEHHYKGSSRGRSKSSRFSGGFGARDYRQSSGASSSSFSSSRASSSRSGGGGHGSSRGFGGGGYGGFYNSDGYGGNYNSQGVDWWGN

For `O=C(CCN1C(=O)/C(=C/c2ccccc2)SC1=S)Nc1ccccc1O`, which Activity is on record?
The Activity was “inactive”.

How did the Activity turn out when `Cc1ccc(-c2ccc(/C=C(\C#N)c3n[nH]c(N)c3C#N)o2)c([N+](=O)[O-])c1` was run?
Its Activity is “inactive”.

How did the Activity turn out when `O=C(CN1C(=O)/C(=C/c2cccc(Br)c2)SC1=S)Nc1cccc(O)c1` was run?
Its Activity is “inactive”.

With `Cc1ccc(/C=C2\SC(=S)N(CCC(=O)Nc3ccccc3O)C2=O)cc1` as the compound, how does the Activity read?
The Activity was “inactive”.

For `Cc1ccc(/C=C2\SC(=S)N(CCC(=O)Nc3cccc(Cl)c3O)C2=O)cc1`, which Activity is on record?
The Activity was “inactive”.

`N#C/C(=C\c1ccc(-c2ccccc2[N+](=O)[O-])o1)c1nn(CCO)c(N)c1C#N` was tested. Which Activity did it give?
The Activity was “inactive”.

For `COc1ccccc1NC(=O)CCN1C(=O)/C(=C/c2cccc(Br)c2)SC1=S`, which Activity is on record?
The Activity was “inactive”.

For `O=C(CCN1C(=O)/C(=C/c2ccccc2Cl)SC1=S)Nc1ccccc1O`, which Activity is on record?
The Activity was “inactive”.

Which Activity does the source give for `O=C(CCN1C(=O)/C(=C/c2ccccc2)SC1=S)Nc1cccc(O)c1` here?
Its Activity is “inactive”.

How did the Activity turn out when `N#C/C(=C\c1ccc(-c2ccccc2Cl)o1)c1nn(-c2ccccc2)c(N)c1C#N` was run?
Its Activity is “inactive”.

`N#C/C(=C\c1ccc(-c2ccc(C(=O)O)cc2)o1)c1n[nH]c(N)c1C#N` was tested. Which Activity did it give?
Its Activity is “inactive”.

target: Proto-oncogene tyrosine-protein kinase Src (Homo sapiens) (UniProt P12931); assay: Inhibition of c-Src upto 100 uM; details: not given
Sequence (P12931 2-536 limits assumed): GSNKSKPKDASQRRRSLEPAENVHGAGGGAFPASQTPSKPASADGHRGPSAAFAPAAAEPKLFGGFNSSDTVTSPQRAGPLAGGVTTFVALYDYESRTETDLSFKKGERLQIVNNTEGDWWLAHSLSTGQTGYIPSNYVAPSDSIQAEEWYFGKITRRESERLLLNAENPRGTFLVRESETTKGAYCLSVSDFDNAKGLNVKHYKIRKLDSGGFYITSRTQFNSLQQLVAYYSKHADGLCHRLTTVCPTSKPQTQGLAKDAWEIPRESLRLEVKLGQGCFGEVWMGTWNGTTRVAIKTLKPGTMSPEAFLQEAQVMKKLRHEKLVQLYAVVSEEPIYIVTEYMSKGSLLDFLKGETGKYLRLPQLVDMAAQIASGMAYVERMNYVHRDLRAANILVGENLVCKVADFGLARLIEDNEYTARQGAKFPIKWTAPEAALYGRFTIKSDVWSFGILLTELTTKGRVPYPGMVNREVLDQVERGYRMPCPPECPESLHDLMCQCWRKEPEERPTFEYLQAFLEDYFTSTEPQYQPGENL

Which Activity does the source give for `O=C(CCN1C(=O)/C(=C/c2cccc(Br)c2)SC1=S)Nc1ccccc1O` here?
The Activity was “inactive”.

target: Polynucleotide kinase (Enterobacteria phage T4) (UniProt P06855); assay: Inhibition of T4 polynucleotide kinase upto 100 uM; details: Tequatrovirus T4
Sequence (P06855 whole entry): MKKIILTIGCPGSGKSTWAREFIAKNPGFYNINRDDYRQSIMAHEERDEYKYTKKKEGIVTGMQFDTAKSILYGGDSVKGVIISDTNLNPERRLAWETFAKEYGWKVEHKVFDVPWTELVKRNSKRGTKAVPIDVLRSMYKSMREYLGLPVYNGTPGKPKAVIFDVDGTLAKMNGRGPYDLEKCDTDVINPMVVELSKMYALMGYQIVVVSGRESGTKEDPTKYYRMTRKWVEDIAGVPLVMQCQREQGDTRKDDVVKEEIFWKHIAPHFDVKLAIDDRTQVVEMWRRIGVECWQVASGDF

How did the Activity turn out when `O=C(CCN1C(=O)/C(=C/c2cccc(Br)c2)SC1=S)Nc1ccccc1O` was run?
Its Activity is “inactive”.

tested on: Hepacivirus hominis; assay: Inhibition of HCV NS3 ATPase/helicase upto 100 uM; details: not given

`O=C(CCN1C(=O)/C(=C/c2cccc(Br)c2)SC1=S)Nc1ccccc1O` was tested. Which Activity did it give?
The Activity was “inactive”.
